# Measured values taken from patent publication US12157727B2, “Substituted tetrahydroquinolin compounds as indoleamine 2,3-dioxygenase (IDO) inhibitors” (Merck Sharp & Dohme LLC, priority 2019, dated 2024).
# Target: T1, IDO1 (Homo sapiens, UniProt P14902)
# T1 construct: Human whole blood was drawn in sodium heparin coated tubes from healthy internal donors; from tissue; host or cells: human whole blood from healthy donors, stimulated with LPS and IFNγ
# Assay: IDO1 Human Whole Blood Assay
# Type: cell-based
# Details: LPS and IFNγ 100 ng/mL, overnight (18 h), kynurenine by LC/MS/MS
# Procedure: Compounds to be tested were serially diluted in ten 3-fold steps in DMSO starting from 10 mM. 3 μL of compound dilutions or DMSO alone were then dispensed from the dilution plate into a polypropylene 96-well assay plate containing 97 μL of RPMI using an Echo 555 acoustic liquid handler (Labcyte). LPS and IFNγ was prepared in RPMI to a 10× of final conc. (1000 ng/mL), final concentration is 100 ng/mL.
# Human whole blood was drawn in sodium heparin coated tubes from healthy internal donors. 240 μL of blood was transferred to each of the wells of a v-bottom 96 well plate. 30 μL of compound was transferred from intermediate dilution plate, and incubated for 15 min. 30 μL from stimulants was then transferred to blood and mixed thoroughly. Plate was covered with breathable membrane and incubated at 37° C. for overnight (18 h).
# On day 2 isotope labeled standard of kynurenine and tryptophan was made in water at 10×concentration and 30 μL was added to the blood at 3 μM final concentration. The assay plates were centrifuged at 300×G for 10 min with no brake to separate plasma from red blood cells. 60 μL of plasma samples was removed without disturbing red blood cells. Plasma was diluted with RPMI in 1:1 ratio and proteins were precipitated out with two volumes of Acetonitrile. The plates were centrifuged at 4000×G for 60 min. 20 μL of supernatant was carefully transferred to a 384 well plate contain 40 μL of 0.1% formic acid in water and analyzed by LC/MS/MS.
# LC/MS/MS analyses were performed using Thermo Fisher's LX4-TSQ Quantum Ultra system. This system consists of four Agilent binary high-performance liquid chromatography (HPLC) pumps and a TSQ Quantum Ultra triple quadrupole MS/MS instrument. For each sample, 5 μL were injected onto an Atlantis T3 column (2.1 mm×150 mm, 3 μm particle size) from Waters. The mobile phase gradient pumped at 0.8 mL/min was used to elute the analytes from the column at 25° C. The elution started at 0% B increasing linearly to 25% B at 6.5 min, holding at 25% for 1 min, re-equilibrating to 10 min. Mobile phase A consisted of 0.1% formic acid in water. Mobile phase B consisted of 0.1% of formic acid in acetonitrile. Data was acquired in positive mode using a HESI interface. The operational parameters for the TSQ Quantum Ultra instrument were a spray voltage of 4000 V, capillary temperature of 380° C., vaporizer temperature 400° C., shealth gas 60 arbitrary units, Aux gas 20 arbitrary units, tube lens 85 and collision gas 1.2 mTorr. SRM chromatograms of kynurenine (Q1: 209.2>Q3:94.0) and internal standard (Q1: 215.3>Q3:98.2) were collected for 90 sec. The peak area was integrated by Xcalibur Quan software. The ratios between the kynurenine generated in the reaction and 2D6-Kynurenine spiked-in internal standard were used to generate percentage inhibition and IC50 values. Compounds were titrated and IC50' s were calculated by 4 parameter sigmoidal curve fitting formula.
# T1 sequence (P14902 whole entry): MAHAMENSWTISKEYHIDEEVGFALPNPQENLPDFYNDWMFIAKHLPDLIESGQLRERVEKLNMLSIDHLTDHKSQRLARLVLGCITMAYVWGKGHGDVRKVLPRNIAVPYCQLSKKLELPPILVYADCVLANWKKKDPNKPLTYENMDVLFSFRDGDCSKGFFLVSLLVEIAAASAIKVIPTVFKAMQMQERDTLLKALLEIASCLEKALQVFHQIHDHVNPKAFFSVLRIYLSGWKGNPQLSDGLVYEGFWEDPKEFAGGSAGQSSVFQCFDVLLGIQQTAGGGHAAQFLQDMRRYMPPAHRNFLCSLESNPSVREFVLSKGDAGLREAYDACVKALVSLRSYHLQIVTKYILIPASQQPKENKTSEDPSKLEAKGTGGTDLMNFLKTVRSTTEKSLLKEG
row,IC50 [nM],Structure (SMILES)
1,186,"O=C(C1CC1)N1CCCc2cc(C3(c4nc5ncc(C(F)(F)F)cc5[nH]4)CCC3)ccc21 [Example 1, Cyclopropyl(6-(1-(6-(trifluoromethyl)-1H-imidazo[4,5-b]pyridin-2-yl)cyclobutyl)-3A-dihydroquinolin-1(2H)-yl)methanone]"
2,132,"O=C(C1CC1)N1CCCc2cc(C3(c4nc5ccc(Cl)cc5[nH]4)CCC3)ccc21 [Example 2, {6-[1-(6-chloro-1H-benzimidazol-2-yl)cyclobutyl]-3,4-dihydroquinolin-1(2H)-yl}(cyclopropyl) methanone]"
3,30.7,"O=C([C@H]1CCCO1)N1CCCc2cc(C3(c4nc5ncc(C(F)(F)F)cc5[nH]4)CCC3)ccc21 [Example 3, [(2R)-oxolan-2-yl][6-{1-[6-(trifluoromethyl)-1H-imidazo[4,5-b]pyridin-2-yl]cyclobutyl}-3,4-dihydroquinolin-1(2H)-yl]methanone]"
4,27,"N#Cc1ccc2nc(C3(c4ccc5c(c4)CCCN5C(=O)C4CC4)CCC3)[nH]c2c1 [Example 4, 2-{1-[1-(cyclopropane-carbonyl)-1,2,3,4-tetrahydroquinolin-6-yl]cyclobutyl}-1H-benzimidazole-6-carbonitrile]"
5,229,"COC(=O)N1CCCc2cc(C3(c4nc5ncc(C(F)(F)F)cc5[nH]4)CCC3)ccc21 [Example 5, Methyl 6-(1-(6-(trifluoromethyl)-1H-imidazo[4,5-b]pyridin-2-yl)cyclobutyl)-3,4-dihydroquinoline-1(2H)-carboxylate]"
6,56.3,"O=C(C1CC1)N1CCCc2nc(C3(c4nc5cc(C(F)(F)F)cnc5[nH]4)CCC3)ccc21 [Example 13, Cyclopropyl(6-(1-(6-(trifluoromethyl)-3H-imidazo[4,5-b]pyridin-2-yl)cyclobutyl)-3,4-dihydro-1,5-naphthyridin-1(2H),-yl)methanone]"
7,26.1,"O=C([C@@H]1CCCCO1)N1CCCc2nc(C3(c4nc5ncc(C(F)(F)F)cc5[nH]4)CCC3)ccc21 [Example 15, (S)-(tetrahydro-2H-pyran-2-yl)(6-(1-(6-(trifluoromethyl)-1H-imidazo[4,5-b]pyridin-2-yl)cyclobutyl)-3,4-dihydro-1,5-naphthyridin-1(2H)-yl)methanone]"
8,14.1,"O=C([C@H]1CCCCO1)N1CCCc2nc(C3(c4nc5ncc(C(F)(F)F)cc5[nH]4)CCC3)ccc21 [Example 16, (R)-(tetrahydro-2H-pyran-2-yl)(6-(1-(6-(trifluoromethyl)-1H-imidazo[4,5-b]pyridin-2-yl)cyclobutyl)-3,4-dihydro-1,5-naphthyridin-1(2H)-yl)methanone]"
9,47.8,"O=C(c1ccccc1Cl)N1CCCc2nc(C3(c4nc5ncc(C(F)(F)F)cc5[nH]4)CCC3)ccc21 [Example 17, (2-chlorophenyl)[6-{1-[6-(trifluoromethyl)-1H-imidazo[4,5-b]pyridin-2-yl]cyclobutyl}-3,4-dihydro-1,5-naphthyridin-1(2H)-yl]methanone]"
10,494,"COC(=O)N1CCCc2nc(C3(c4nc5cc(C(F)(F)F)cnc5[nH]4)CCC3)ccc21 [Example 18, methyl 6-(1-(6-(trifluoromethyl)-3H-imidazo[4,5-b]pyridin-2-yl)cyclobutyl)-3,4-dihydro-1,5-naphthyridine-1(2H),-carboxylate]"
11,274,"CCOC(=O)N1CCCc2nc(C3(c4nc5cc(C(F)(F)F)cnc5[nH]4)CCC3)ccc21 [Example 19, ethyl 6-{1-[6-(trifluoromethyl)-3H-imidazo[4,5-b]pyridin-2-yl]cyclobutyl}-3,4-dihydro-1,5-naphthyridine-1(2H)-carboxylate]"
12,35,"N#Cc1ccc2nc(C3(c4ccc5c(n4)CCCN5C(=O)OC4CC4)CCC3)[nH]c2c1 [Example 20, cyclopropyl 6-[1-(6-cyano-1H-benzimidazol-2-yl)cyclobutyl]-3,4-dihydro-1,5-naphthyridine-1(2H)-carboxylate]"
13,44.1,"O=C(OC1CC1)N1CCCc2nc(C3(c4nc5ccc(Cl)cc5[nH]4)CCC3)ccc21 [Example 21, cyclopropyl 6-[1-(6-chloro-1H-benzimidazol-2-yl)cyclobutyl]-3,4-dihydro-1,5-naphthyridine-1(2H)-carboxylate]"
14,60.5,"O=C(OC1CC1)N1CCCc2nc(C3(c4nc5ncc(Cl)cc5[nH]4)CCC3)ccc21 [Example 22, cyclopropyl 6-[1-(6-chloro-1H-imidazo[4,5-b]pyridin-2-yl)cyclobutyl]-3,4-dihydro-1,5-naphthyridine-1(2H)-carboxylate]"
15,64.2,"O=C(OC1CC1)N1CCCc2nc(C3(c4nc5ncc(C(F)(F)F)cc5[nH]4)CCC3)ccc21 [Example 23, cyclopropyl 6-{1-[6-(trifluoromethyl)-1H-imidazo[4,5-b]pyridin-2-yl]cyclobutyl}-3,4-dihydro-1,5-naphthyridine-1(2H)-carboxylate]"
16,121,"N#Cc1cnc2nc(C3(c4ccc5c(n4)CCCN5C(=O)OC4CC4)CCC3)[nH]c2c1 [Example 24, cyclopropyl 6-[1-(6-cyano-1H-imidazo[4,5-b]pyridin-2-yl)cyclobutyl]-3,4-dihydro-1,5-naphthyridine-1(2H)-carboxylate]"
17,117,"CC(c1ccc2c(n1)CCCN2C(=O)OC1CC1)c1nc2ccc(Cl)cc2[nH]1 (stereo not drawn) [Example 25, cyclopropyl 6-(1-(6-chloro-1H-benzo[d]imidazol-2-yl)ethyl)-3,4-dihydro-1,5-naphthyridine-1(2H)-carboxylate]"
18,55,"C[C@@H](c1ccc2c(n1)CCCN2C(=O)OC1CC1)c1nc2ccc(Cl)cc2[nH]1 [Example 26, cyclopropyl (S)-6-(1-(6-chloro-1H-benzo[d]imidazol-2-yl)ethyl)-3,4-dihydro-1,5-naphthyridine-1(2H)-carboxylate]"
19,56.8,"C[C@H](c1ccc2c(n1)CCCN2C(=O)OC1CC1)c1nc2ccc(Cl)cc2[nH]1 [Example 27, cyclopropyl (R)-6-(1-(6-chloro-1H-benzo[d]imidazol-2-yl)ethyl)-3,4-dihydro-1,5-naphthyridine-1(2H)-carboxylate]"
20,355,"Cc1nccc(N2CCCc3nc(C4(c5nc6cc(C(F)(F)F)cnc6[nH]5)CCC4)ccc32)n1 [Example 30, 1-(2-methylpyrimidin-4-yl)-6-(1-(6-(trifluoromethyl)-3H-imidazo[4,5-b]pyridin-2-vyl)cyclobutyl)-1,2,3,4-tetrahydro-1,5-naphthyridine]"
21,83.3,"FC(F)(F)c1nccc(N2CCCc3nc(C4(c5nc6cc(Cl)ccc6[nH]5)CCC4)ccc32)n1 [Example 33, 6-[1-(5-chloro-1H-benzimidazol-2-yl)cyclobutyl]-1-[2-(trifluoromethyl)pyrimidin-4-yl]-1,2,3,4-tetrahydro-1,5-naphthyridine]"
22,140,"Cc1nccc(N2CCCc3nc(C4(c5nc6cc(Cl)ccc6[nH]5)CCC4)ccc32)n1 [Example 34, 6-[1-(6-chloro-1H-benzimidazol-2-yl)cyclobutyl]-1-(2-methylpyrimidin-4-yl)-1,2,3,4-tetrahydro-1,5-naphthyridine]"
23,53.9,"FC(F)(F)c1nccc(N2CCCc3nc(C4(c5nc6cc(Cl)cnc6[nH]5)CCC4)ccc32)n1 [Example 35, 6-[1-(6-chloro-3H-imidazo[4,5-b]pyridin-2-yl)cyclobutyl]-1-[2-(trifluoromethyl)pyrimidin-4-yl]-1,2,3,4-tetrahydro-1,5-naphthyridine]"
24,71.3,"N#Cc1ccc2nc(C3(c4ccc5c(n4)CCCN5c4ccnc(C(F)(F)F)n4)CC4(CC4)C3)[nH]c2c1 [Example 41, 2-(5-(5-(2-(trifluoromethyl)pyrimidin-4-yl)-5,6,7,8-tetrahydro-1,5-naphthyridin-2-yl)spiro[2,3]hexan-5-yl)-1H-benzo[d]imidazole-6-carbonitrile]"
